# Assay results as given in PMC5750648, “Study of Statin- and Loratadine-Induced Muscle Pain Mechanisms Using Human Skeletal Muscle Cells” (Pharmaceutics, 2017).
# Entries after “also recorded” stand apart in the source; their conditions may differ. Counter-ions that a name gives are not always drawn.
# Legend:
# [1] = tested on: MCT-mediated efflux transport of L-lactic acid (MCT1 and 4); test: Inhibition of L-lactic acid efflux in SkMC (intracellular [14C] L-lactic acid accumulation); type: cell-based, human; details: for Inhibitory effect on L-lactic acid efflux (in words): 0.25 to 300 µM
# Method: Assessment of efflux transport. A similar approach was used to measure efflux transport of L-lactic acid. For these experiments, distribution equilibrium of L-lactic acid was reached by adding MES or HEPES (pH 7.0 or 7.4; 1 mL) containing 6 mM [^14C] L-lactic acid (0.2 µCi/mL). After 10 min (to allow L-lactic acid to reach equilibrium), MES or HEPES buffer containing [^14C] L-lactic acid was replaced by L-lactic acid-free buffer for 2.5 min. Transport was stopped by placing culture plates on ice, rapidly aspirating the media and cells were washed 3-times with ice-cold HEPES buffer. Cellular radioactivity levels were determined as previously described in the Method section (Assessment of influx transport).
# At the beginning of the experiment (t = 0), medium was replaced by HEPES (pH 7.4; 1 mL) buffer to wash cells. After removing the wash buffer, cells were loaded with [^14C] L-lactic acid (6 mM, 0.2 µCi/mL) in MES or HEPES buffer (pH 7.0 or pH 7.4). Briefly, following pre-incubation of cells in buffer containing [^14C] L-lactic acid for 10 min (to allow L-lactic acid to reach equilibrium), the buffer was replaced by a buffer containing [^14C] L-lactic acid and the potential inhibitor. This mixture was incubated for an additional 3 min in order to allow diffusion of the inhibitor in the cells without perturbing L-lactic acid equilibrium. Then, cells were washed once rapidly with buffer containing the tested inhibitors or vehicle, but without L-lactic acid. In the final step, the tested inhibitors or vehicle were added to the L-lactic acid-free buffer and incubated for 2.5 min as described previously for the assessment of the efflux transport. Culture plates were placed on ice to stop the reaction. Inhibition of L-lactic acid efflux was determined by measuring intracellular [^14C] L-lactic acid concentration.
# SkMC = test: Intracellular concentrations of statins and loratadine at the end of inhibition assays (HPLC-UV)
# Method: Instruments used consisted of a SpectraSystem P4000 pump, a SpectraSystem AS3000 autosampler, a Finnigan SpectraSystem UV6000 ultraviolet detector and a SpectraSystem SN4000 System Controller from Thermo Electron Corporation (San Jose, CA, USA). An Agilent Zorbax Column, Eclipse XDB-C8, 4.6 mm × 150 mm (Agilent, Santa Clara, CA, USA) was used at a temperature of 40 °C. An isocratic mobile phase contained 10 mM ammonium formate pH 3 and acetonitrile with varying proportions, at a flow rate of 1.0 mL/min. Details for mobile phase proportions, internal standards and monitored UV wavelengths are listed in Supplementary Table S1.
# After the final incubation, cells were washed twice with PBS 10% methanol and once with PBS alone. The cells were lysed with methanol containing appropriate internal standards for the compounds of interest, then transferred and centrifuged for 10 min at room temperature. The supernatant was transferred to a culture borosilicate glass tube, evaporated and reconstituted in 100 µL of 10 mM ammonium formate pH 3 and acetonitrile (50:50 v/v). A volume of 20 µL per sample was injected. The ChromQuest Version 4.2.34 software was used for data acquisition.
# [2] = tested on: MCT-mediated efflux transport of L-lactic acid (MCT1 and 4); test: L-lactic acid efflux inhibition after six-day pretreatment of SkMC; type: cell-based, human; details: inhibitor 300 µM
# Method: At the beginning of the experiment (t = 0), medium was replaced by HEPES (pH 7.4; 1 mL) buffer to wash cells. […] Then, cells were washed once rapidly with buffer containing the tested inhibitors or vehicle, but without L-lactic acid. […] Culture plates were placed on ice to stop the reaction. Inhibition of L-lactic acid efflux was determined by measuring intracellular [^14C] L-lactic acid concentration.
# [3] = tested on: L-lactic acid influx transport in SkMC; test: Kinetic parameters of L-lactic acid influx transport in SkMC; type: cell-based, human
# Method: After differentiation, and before the beginning of the transport experiments, cells were washed, and the medium replaced with HEPES (pH 7.4; 1 mL) buffer. Transport assays, including the pre-incubation period in HEPES, were performed at 37 °C. Assay conditions were previously optimized by standard incubations with L-lactic acid (e.g., incubation times). […] Assessment of influx transport. […] The suspension was passed through 27½ G needle 3-times. […] L-lactic acid concentrations.
# [4] = set-up: method as in PMID 16453090; details: Primo study; cited from earlier work
structure (smiles),measurement,setting,value
O=C(CCc1ccc(O)cc1)c1c(O)cc(O)cc1O [phloretin],Maximal intracellular L-lactic acid augmentation,"[1]; SkMC, pH 7.0, 1 to 300 µM tested",2.1 fold
same,Maximal intracellular L-lactic acid augmentation,"[1]; SkMC, pH 7.4, 1 to 300 µM tested",2.2 fold
CCOC(=O)N1CCC(=C2c3ccc(Cl)cc3CCc3cccnc32)CC1 [Loratadine],Effect of pH on intracellular accumulation of the drug,"SkMC; SkMC, pH 7.0 compared to pH 7.4",did not affect
"CCC(C)(C)C(=O)O[C@H]1C[C@@H](C)C=C2C=C[C@H](C)[C@H](CC[C@@H](O)C[C@@H](O)CC(=O)O)[C@H]21 [Simvastatin hydroxy acid, simvastatin hydroxyl acid ammonium salt]",Intracellular lactic acid increase,[1]; SkMC (abstract),25–35%
same,Maximal increase of intracellular L-lactic acid,"[1]; SkMC, 300 µM inhibitor",35%
same,Inhibitory effect on L-lactic acid efflux (in words),[1]; SkMC,weak inhibitory potency
same,Intracellular L-Lactic Acid Increase (%),"[2]; no pretreatment (Control), pH 7.4",65%
same,Intracellular L-Lactic Acid Increase (%),"[2]; six-day pretreatment 0.033 µM, pH 7.0",103%
same,Intracellular L-Lactic Acid Increase (%),"[2]; six-day pretreatment 0.033 µM, pH 7.4",51%
same,Intracellular L-Lactic Acid Increase (%),"[2]; six-day pretreatment 0.1 µM, pH 7.0",31%
same,Intracellular L-Lactic Acid Increase (%),"[2]; six-day pretreatment 0.1 µM, pH 7.4",35%
"C[C@H](O)C(=O)O [L-lactic acid, L-lactic acid sodium salt]",Km,[3]; pH 7.0,17 mM
same,Vmax of L-lactic acid influx transport,[3]; pH 7.0,90 nmol/min/mg protein
same,Km,[3]; pH 7.4,23 mM
same,Vmax of L-lactic acid influx transport,[3]; pH 7.4,82 nmol/min/mg protein
CC(C)c1nc(N(C)S(C)(=O)=O)nc(-c2ccc(F)cc2)c1/C=C/[C@@H](O)C[C@@H](O)CC(=O)O [rosuvastatin],Inhibitory effect on L-lactic acid efflux (in words),[1]; SkMC,No L-lactic acid efflux inhibition; also recorded: No significant inhibitory effect
same,Inhibitory effect on L-lactic acid transport (in words),"[1]; SkMC, pH 7.0",no significant inhibitory effect
same,Uptake of the drug in SkMC,SkMC,did not have a significant uptake
CC(C)c1c(C(=O)Nc2ccccc2)c(-c2ccccc2)c(-c2ccc(F)cc2)n1CC[C@@H](O)C[C@@H](O)CC(=O)O [Atorvastatin],Rate of patients experiencing muscular discomfort,[4],14.9%
